Counter-ions that a name gives are not always drawn.
Columns and labels:
HCT116 [1] = assay: efficacy (maximum % inhibition of viability vs DMSO); higher = more cytotoxic; conditions: 72 h
Summary of the method: (§1)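 Luminescence was read with CellTiter-Glo in HCT116 cells seeded at 250 per well in 1536-well plates. Signals were scaled between vehicle at 0% and positive control at -100%, then pattern-corrected. IC50 and maximal efficacy were obtained by fitting a four-parameter Hill equation.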

HCT116 [2] = conditions: 72 h
Summary of the method: as §1

SMILES	efficacy (HCT116 [1]; ICRF193 0 nM)	efficacy (HCT116 [1]; ICRF193 200 nM)	IC50 cell viability (HCT116 [2]; ICRF193 0 nM)	IC50 cell viability (HCT116 [2]; ICRF193 200 nM)
C=CC(=O)N1CCC[C@@H](n2nc(-c3ccc(Oc4ccccc4)cc3)c3c(N)ncnc32)C1	47.6%	72.8%	23.1 µM	29.1 µM
C=C[C@@H]1C[C@]1(NC(=O)[C@@H]1C[C@@H](Oc2ncc(OC)c3ccc(Cl)cc23)CN1C(=O)[C@@H](NC(=O)OC(C)(C)C)C(C)(C)C)C(=O)NS(=O)(=O)C1CC1	92.8%	92.4%	20.6 µM	20.6 µM
CCCCC[C@H](O)C=C[C@H]1[C@@H](O)CC(=O)[C@@H]1CCCCCCC(=O)O	73.2%	73.8%	20.6 µM	23.1 µM
C[C@@H]1CCO[C@H]2Cn3cc(C(=O)NCc4ccc(F)cc4F)c(=O)c(O)c3C(=O)N12	82.5%	106%	25.9 µM	20.6 µM
C#C[C@]1(OC(C)=O)CC[C@H]2[C@@H]3CCC4=CC(=NO)CC[C@@H]4[C@H]3CC[C@@]21CC (mixture of isomers) [Norgestimate]	84%	102%	18.3 µM	29.1 µM
CNCCC(Oc1ccc(C(F)(F)F)cc1)c1ccccc1 (racemic) [(+/-) -Fluoxetine]	106%	102%	29.1 µM	18.3 µM
CCCC1CCCCN1 (racemic) [dl-Coniine]	–	66.1%	> 45.8 µM	4.11 µM
O[C@@H](CNC[C@H](O)[C@H]1CCc2cc(F)ccc2O1)[C@@H]1CCc2cc(F)ccc2O1 (racemic) [rac Nebivolol hydrochloride]	121%	98.2%	29.1 µM	20.6 µM
CCCCCCCCCCCC[n+]1ccc2ccccc2c1 [2-Dodecylisoquinolinium tosylate]	101%	103%	7.3 µM	4.61 µM
O=C(Nc1ccc([N+](=O)[O-])cc1)Nc1ccc([N+](=O)[O-])cc1 [4,4'-Dinitrodiphenylurea]	–	55.9%	> 45.8 µM	29.1 µM
Nc1ncn([C@@H]2O[C@H](CO)[C@@H](O)[C@H]2O)c(=O)n1 [5-Azacitidine]	121%	98.6%	8.2 µM	8.2 µM
Nc1nc(=S)c2[nH]cnc2[nH]1 [6-Thioguanine]	97.5%	91.8%	3.66 µM	2.06 µM
S=c1nc[nH]c2nc[nH]c12 [6-mercaptopurine]	91.6%	83.2%	2.59 µM	3.26 µM
Nc1c2ccccc2nc2ccccc12 [9-Aminoacridine, monohydrochloride, monohydrate]	103%	90.6%	23.1 µM	9.2 µM
C[C@H](Oc1cc(-c2cnn(C3CCNCC3)c2)cnc1N)c1c(Cl)ccc(F)c1Cl [(S)-Crizotinib]	89.7%	91.2%	20.6 µM	18.3 µM
COc1c(-c2ccc3cc(NS(C)(=O)=O)ccc3c2)cc(-n2ccc(=O)[nH]c2=O)cc1C(C)(C)C [ABT-333]	94.6%	102%	20.6 µM	25.9 µM
Cc1cnc(C(=O)N[C@H]2CCCCC/C=C\[C@@H]3C[C@@]3(C(=O)NS(=O)(=O)C3CC3)NC(=O)[C@@H]3C[C@@H](Oc4nc5ccccc5c5ccccc45)CN3C2=O)cn1 [ABT-450]	110%	100%	29.1 µM	18.3 µM
N=c1ccn2c(n1)O[C@H]1[C@H](O)[C@@H](CO)O[C@H]12 [ANCITABINE HYDROCHLORIDE]	58.5%	56.7%	0.206 µM	0.146 µM
C[C@H]1[C@H](OC(=O)CCC(=O)O)O[C@@H]2O[C@@]3(C)CC[C@H]4[C@H](C)CC[C@@H]1[C@@]24OO3 [ARTESUNATE]	93.1%	86.8%	1.64 µM	0.73 µM

SMILES	efficacy (HCT116 [1]; ICRF193 0 nM)	efficacy (HCT116 [1]; ICRF193 200 nM)	IC50 cell viability (HCT116 [2]; ICRF193 0 nM)	IC50 cell viability (HCT116 [2]; ICRF193 200 nM)
CCN1CCN(Cc2ccc(Nc3ncc(F)c(-c4cc(F)c5nc(C)n(C(C)C)c5c4)n3)nc2)CC1 [Abemaciclib]	116%	112%	16.4 µM	18.3 µM
CC(=O)Oc1cc(C)c(OC(C)=O)c2ccccc12 [Acetomenaphthone]	107%	108%	44.7 µM	50.1 µM
CC[C@@]1(O)C[C@H](O[C@H]2C[C@H](N(C)C)[C@H](O[C@H]3C[C@H](O)[C@H](O[C@H]4CCC(=O)[C@H](C)O4)[C@H](C)O3)[C@H](C)O2)c2c(cc3c(c2O)C(=O)c2c(O)cccc2C3=O)[C@H]1C(=O)OC [Aclarubicin]	122%	112%	23.1 µM	9.2 µM
C[n+]1c2cc(N)ccc2cc2ccc(N)cc21.Nc1ccc2cc3ccc(N)cc3nc2c1 [Acriflavine hydrochloride]	50.4%	56.5%	16.4 µM	23.1 µM
Cc1c2oc3c(C)ccc(C(=O)N[C@@H]4C(=O)N[C@H](C(C)C)C(=O)N5CCC[C@H]5C(=O)N(C)CC(=O)N(C)[C@@H](C(C)C)C(=O)O[C@@H]4C)c3nc-2c(C(=O)N[C@@H]2C(=O)N[C@H](C(C)C)C(=O)N3CCC[C@H]3C(=O)N(C)CC(=O)N(C)[C@@H](C(C)C)C(=O)O[C@@H]2C)c(N)c1=O [Actinomycin D]	48.1%	79.3%	0.0164 µM	0.0206 µM
CC(C)(C)C(=O)OCOP(=O)(COCCn1cnc2c(N)ncnc21)OCOC(=O)C(C)(C)C [Adefovir dipivoxil]	63.1%	79.3%	14.6 µM	13 µM
CN(C)C/C=C/C(=O)Nc1cc2c(Nc3ccc(F)c(Cl)c3)ncnc2cc1O[C@H]1CCOC1 [Afatinib (BIBW2992)]	110%	130%	29.1 µM	18.3 µM
CCCSc1ccc2[nH]c(NC(=O)OC)nc2c1 [Albendazole]	53%	–	10.3 µM	> 45.8 µM
O=C1c2ccccc2C(=O)c2c1ccc(O)c2O [Alizarin]	–	47.6%	> 45.8 µM	29.1 µM
O=S(=O)(O)c1ccc2c(/N=N/c3ccc(S(=O)(=O)O)c4ccccc34)c(O)c(S(=O)(=O)O)cc2c1 [Amaranth]	49%	47.6%	16.4 µM	13 µM
CCCCc1oc2ccccc2c1C(=O)c1cc(I)c(OCCN(CC)CC)c(I)c1 [Amiodarone hydrochloride]	92.6%	93%	20.6 µM	16.4 µM
CN(C)CCC=C1c2ccccc2CCc2ccccc21 [Amitriptyline hydrochloride]	–	51.6%	> 45.8 µM	18.3 µM
CCOC(=O)C1=C(COCCN)NC(C)=C(C(=O)OC)C1c1ccccc1Cl (stereo not given) [Amlodipine]	–	88.3%	> 45.8 µM	16.4 µM
CCN(CC)Cc1cc(Nc2ccnc3cc(Cl)ccc23)ccc1O [Amodiaquin dihydrochloride dihydrate]	85.2%	101%	18.3 µM	18.3 µM
COc1cc(NS(C)(=O)=O)ccc1Nc1c2ccccc2nc2ccccc12 [Amsacrine]	141%	128%	20.6 µM	20.6 µM
CN1CCc2cccc3c2[C@H]1Cc1ccc(O)c(O)c1-3 [Apomorphine]	116%	107%	20.6 µM	29.1 µM
C[C@@H](O[C@H]1OCCN(Cc2n[nH]c(=O)[nH]2)[C@H]1c1ccc(F)cc1)c1cc(C(F)(F)F)cc(C(F)(F)F)c1 [Aprepitant]	113%	102%	23.1 µM	18.3 µM
COC(=O)C1=C(C)NC(C)=C(C(=O)OCC(C)=O)C1c1ccccc1[N+](=O)[O-] (stereo not given) [Aranidipine]	83.8%	88.9%	29.1 µM	16.4 µM
[O-][n+]1cccc(/C(Cl)=N/OC[C@H](O)CN2CCCCC2)c1 [Arimoclomol]	–	65.4%	> 45.8 µM	0.651 µM

SMILES	efficacy (HCT116 [1]; ICRF193 0 nM)	efficacy (HCT116 [1]; ICRF193 200 nM)	IC50 cell viability (HCT116 [2]; ICRF193 0 nM)	IC50 cell viability (HCT116 [2]; ICRF193 200 nM)
O=C1CCc2ccc(OCCCCN3CCN(c4cccc(Cl)c4Cl)CC3)cc2N1 [Aripiprazole]	52.1%	59.1%	11.6 µM	9.2 µM
COc1ccc(CCN2CCC(Nc3nc4ccccc4n3Cc3ccc(F)cc3)CC2)cc1 [Astemizole]	108%	102%	20.6 µM	16.4 µM
CC1=C(/C=C/C(C)=C/C=C/C(C)=C/C=C/C=C(C)/C=C/C=C(C)/C=C/C2=C(C)CCCC2(C)C)C(C)(C)CCC1 [beta-Carotene]	–	–	> 45.8 µM	> 45.8 µM
O=P(O)(O)OC(CO)CO [beta-Glycerol phosphate disodium salt pentahydrate]	–	–	> 45.8 µM	> 45.8 µM
C=C(C)[C@H]1CC=C(C)CC1 [d-LIMONENE]	–	–	> 45.8 µM	> 45.8 µM
N[C@H](Cc1c[nH]c2ccccc12)C(=O)O [d-Tryptophan]	–	–	> 45.8 µM	> 45.8 µM
OC[C@@H]1NC[C@@H](O)[C@H](O)[C@H]1O [deoxynorjrimycin(1)]	–	–	> 45.8 µM	> 45.8 µM
COc1cc(/C=C/C(=O)O[C@H]2CC[C@]34C[C@]35CC[C@]3(C)[C@@H]([C@H](C)CCC=C(C)C)CC[C@@]3(C)[C@@H]5CC[C@H]4C2(C)C)ccc1O [gamma-Oryzanol]	–	–	> 45.8 µM	> 45.8 µM
COc1cccc(C(=O)CCN[C@@H](C)[C@H](O)c2ccccc2)c1 [l-Oxyfedrine hydrochloride]	–	–	> 45.8 µM	> 45.8 µM
Cc1cccc(O)c1 [m-Cresol]	–	–	> 45.8 µM	> 45.8 µM
CC(=O)Oc1cccc(C)c1 [m-Cresyl acetate]	–	–	> 45.8 µM	> 45.8 µM
O[C@H]1[C@H](O)[C@@H](O)[C@H](O)[C@@H](O)[C@H]1O [myo-Inositol]	–	–	> 45.8 µM	> 45.8 µM
Cc1ccccc1O [o-Cresol]	–	–	> 45.8 µM	> 45.8 µM
Clc1ccc(C(c2ccc(Cl)cc2)C(Cl)(Cl)Cl)cc1 [p,p'-DDT]	–	–	> 45.8 µM	> 45.8 µM
Nc1cc(Cl)c(NC2=NCCN2)c(Cl)c1 [p-Aminoclonidine hydrochloride]	–	–	> 45.8 µM	> 45.8 µM
Cc1ccc(O)cc1 [p-Cresol]	–	–	> 45.8 µM	> 45.8 µM
CC1(O)CCC(C(C)(C)O)CC1 (stereo not given) [p-Menthane-1,8-diol monohydrate]	–	–	> 45.8 µM	> 45.8 µM
O=C(O)/C=C(\CC(=O)O)C(=O)O [trans-Aconitic acid]	–	–	> 45.8 µM	> 45.8 µM

Source: the supplement of paper PMC12137928
